Experiment [1] has as its target T1, Myzus persicae resistance associated esterase, FE4 (Myzus persicae, UniProt P35502).
T1 construct: would be utilized for the purified esterases from aphids; from tissue; host or cells: aphids (Myzus persicae)
T1 sequence (P35502 24-564): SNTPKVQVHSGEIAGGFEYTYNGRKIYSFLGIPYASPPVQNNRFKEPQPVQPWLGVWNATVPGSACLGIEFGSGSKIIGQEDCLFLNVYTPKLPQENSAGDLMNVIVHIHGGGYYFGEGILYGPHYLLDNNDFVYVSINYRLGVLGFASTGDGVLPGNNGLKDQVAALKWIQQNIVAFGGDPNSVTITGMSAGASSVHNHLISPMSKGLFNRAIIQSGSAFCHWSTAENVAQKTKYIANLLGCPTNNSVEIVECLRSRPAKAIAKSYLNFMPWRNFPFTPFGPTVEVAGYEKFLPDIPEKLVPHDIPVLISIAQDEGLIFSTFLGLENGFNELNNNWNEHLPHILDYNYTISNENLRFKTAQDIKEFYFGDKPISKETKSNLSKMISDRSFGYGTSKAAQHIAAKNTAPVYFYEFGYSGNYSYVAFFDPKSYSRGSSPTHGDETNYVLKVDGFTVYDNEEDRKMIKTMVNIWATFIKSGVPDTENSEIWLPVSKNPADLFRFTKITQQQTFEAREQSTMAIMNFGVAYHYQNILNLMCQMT
Briefly: Inhibition of resistance associated esterase FE4, 4-nitrophenyl acetate substrate. The format is biochemical. The conditions noted are these: for inhibition activity compared with PBO: FE4, statement in text; for remaining activity at 10000 µM (stock): purified FE4, 2.5 μL of 10 mM in acetone, 10 min incubation, 4-nitrophenyl acetate 0.8 mM, read-out: Myzus persicae esterases - percentage of the activity remaining FE4. The method, then: It was envisaged, therefore, that the ‘esterase interference assay’ (Khot et al., 2008) would be utilized for the purified esterases from aphids. Various esterase substrates were assessed to find one suitable of monitoring inhibition in an insect homogenate. The Myzus persicae resistance associated esterase, FE4, was used.
Initially the esterase interference assay was carried out, as being the ‘absolute’ protocol for characterising interactions between the compounds of Example 1 and Example 2 and FE4. However, since this is a protracted method, and it would not be applicable for the B. tabaci esterases, a selection of products already reported in the literature were used to compare the interference assay and the use of a model substrate.
From the literature (Philippou et al., 2013) it is known that 1-naphthyl acetate is not suitable for this assay. Instead, 4-nitrophenyl acetate was used. A 10 mM pNA stock was prepared in acetone and added to 0.02 M phosphate buffer pH 7.0 (final concentration 2 mM). The comparison was made with 6 analogues of variable efficacy.
For the assay 10 μL of purified FE4 was diluted to a total volume of 50 μL by the addition of 0.02 M phosphate buffer, pH 7.0 in individual wells of a microplate (maxisorb, NUNC). To each well, 2.5 μL of 10 mM of the compound of Example 1 and of Example 2 in acetone was added and incubated for 10 mins, with acetone only used as a control. Following incubation, 100 μL of 0.02 phosphate buffer, pH 7.0 and 100 μL of 2 mM 4-nitrophenyl acetate was added (final volume in well 250 μL, final substrate concentration 0.8 mM). Enzyme activity was read at 405 nm in a Spectramax Tmax for 5 min, with readings taken every 5 s. The rate (mOD min^−1) was calculated by the integrated software, Softmax Pro v.5.4. A PBO solution (10 mM) was prepared in the same way as a comparison.

In a further experiment the test system is Blattella germanica. Briefly: Contact test on treated glass vials, synergist with cypermethrin. The format is in vivo. The method, then:
Laboratory bred B. germanica species, mixed ages (pre-immaginal and imagoes) and mixed sex were assayed for the test.
An insecticide stock solution was prepared with 150 μL of cypermethrin commercial formulation and diluted to 15 μL/mL with technical acetone to a final volume of 10 mL. The solution contained 450 μg/mL of cypermethrin per liter of insecticidal solution
Stock solution of the compounds of Example 1 and Example 2 were prepared dissolving around 10 mg of EC formulations containing compounds of the Example 1 and Example 2 in technical acetone to have a final concentration of 1.365 μg/mL.
Stock solution (1650 μL) was diluted to 2250 μL with acetone or with stock of insecticide in acetone to have respectively a final concentration of 1 g/L of synergist (as active ingredient) or 0.12 g/L of cypermethrin+1 g/L of the compounds of Example 1 and Example 2. Insecticide alone was prepared adding 600 μL of stock solution to 1650 μL of acetone.
Glass vials (internal surface 35 cm^2) were treated with 350 μL of insecticide solution and allowed to dry in a fume hood on a vial rotator and used as soon as the acetone was fully evaporated.
B. germanica specimens were introduced singly in vials. 20 specimens were tested for each combination of product. The exposure time to product residues was 30 minutes. After this duration the specimens were transferred to an untreated vial ad provided with food and water.
In parallel within the test, a control study has been set up with the same conditions and methods using acetone only treated vials.
The test conditions were as follows: • temperature: 22-24° C. during knock down evaluation (t: 0-30′); 26° C. during mortality assessment (t: 24 h) • relative humidity: min. 60% • light regime: 8 hrs dark/16 hrs natural illumination.
The reading intervals of the number of knocked down and the number of dead insects were: 5-10-15-20-25-30 minutes. A final reading was done 24 hours after the starting of the exposure.
The calculation model of efficacy is according to Abbott's formula (Abbott W S (1925) A method for computing the effectiveness of an insecticide. J. Econ. Entomol. 18: 265-267):
The results are reported in the following Table 5 and represent an average of 4 repetitions.

In general, remaining activity refers to the share of the control activity or signal that is left under treatment.

In the case of `C#CCOCc1cc2c(cc1CCCCCC)OCO2` [Compound of Example 1, 5-n-hexyl-6-((prop-2-ynyloxy)methyl)benzo[d][1,3]dioxole], in experiment [1], the “inhibition activity compared with PBO” value was “better than PBO” and the remaining activity at 10000 µM (stock) turned out to be 23.1%. Moreover, in the experiment with Blattella germanica, the “synergist effect when mixed with Cypermethrin” value was “synergist effect”.
On the same counts, the results for `C#CCOCc1cc2c(cc1CCCC)OCO2` [Compound of Example 2, 5-n-butyl-6-((prop-2-ynyloxy)methyl)benzo[d][1,3]dioxole] are “better than PBO”, 28.7% and “synergist effect”.
